Assay results from patent US9975896B2, “Inhibitors of transcription factors and uses thereof” (Dana-Farber Cancer Institute, Inc., priority 2013, dated 2018).
Where a chain is given by its changes, count along the chain named.

How the values were obtained:
[1] = molecular target: T1, BRPF1 (Homo sapiens, UniProt P55201); assay: BromoScan selectivity panel (Kd); format: binding
T1 sequence (P55201 626-740 limits assumed): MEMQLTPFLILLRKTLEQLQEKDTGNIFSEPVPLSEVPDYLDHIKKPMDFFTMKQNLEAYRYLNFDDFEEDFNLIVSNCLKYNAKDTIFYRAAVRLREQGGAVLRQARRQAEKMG

[2] = molecular target: T2, BRD9 (Homo sapiens, UniProt Q9H8M2); assay: BromoScan selectivity panel (Kd); format: binding
T2 sequence (Q9H8M2 130-250 limits assumed): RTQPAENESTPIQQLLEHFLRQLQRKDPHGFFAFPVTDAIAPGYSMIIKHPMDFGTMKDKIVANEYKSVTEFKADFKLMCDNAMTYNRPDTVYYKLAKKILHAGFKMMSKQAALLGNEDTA

[3] = molecular target: T3, TRIM33(PHD Bromo.) (Homo sapiens, UniProt Q9UPN9); assay: BromoScan selectivity panel (Kd); format: binding
T3 construct: TRIM33(PHD, Bromo.); TRIM33(PHD Bromo.); fused on or other part: The vendor panel's detection tag or display handle
T3 sequence (Q9UPN9 1-1127): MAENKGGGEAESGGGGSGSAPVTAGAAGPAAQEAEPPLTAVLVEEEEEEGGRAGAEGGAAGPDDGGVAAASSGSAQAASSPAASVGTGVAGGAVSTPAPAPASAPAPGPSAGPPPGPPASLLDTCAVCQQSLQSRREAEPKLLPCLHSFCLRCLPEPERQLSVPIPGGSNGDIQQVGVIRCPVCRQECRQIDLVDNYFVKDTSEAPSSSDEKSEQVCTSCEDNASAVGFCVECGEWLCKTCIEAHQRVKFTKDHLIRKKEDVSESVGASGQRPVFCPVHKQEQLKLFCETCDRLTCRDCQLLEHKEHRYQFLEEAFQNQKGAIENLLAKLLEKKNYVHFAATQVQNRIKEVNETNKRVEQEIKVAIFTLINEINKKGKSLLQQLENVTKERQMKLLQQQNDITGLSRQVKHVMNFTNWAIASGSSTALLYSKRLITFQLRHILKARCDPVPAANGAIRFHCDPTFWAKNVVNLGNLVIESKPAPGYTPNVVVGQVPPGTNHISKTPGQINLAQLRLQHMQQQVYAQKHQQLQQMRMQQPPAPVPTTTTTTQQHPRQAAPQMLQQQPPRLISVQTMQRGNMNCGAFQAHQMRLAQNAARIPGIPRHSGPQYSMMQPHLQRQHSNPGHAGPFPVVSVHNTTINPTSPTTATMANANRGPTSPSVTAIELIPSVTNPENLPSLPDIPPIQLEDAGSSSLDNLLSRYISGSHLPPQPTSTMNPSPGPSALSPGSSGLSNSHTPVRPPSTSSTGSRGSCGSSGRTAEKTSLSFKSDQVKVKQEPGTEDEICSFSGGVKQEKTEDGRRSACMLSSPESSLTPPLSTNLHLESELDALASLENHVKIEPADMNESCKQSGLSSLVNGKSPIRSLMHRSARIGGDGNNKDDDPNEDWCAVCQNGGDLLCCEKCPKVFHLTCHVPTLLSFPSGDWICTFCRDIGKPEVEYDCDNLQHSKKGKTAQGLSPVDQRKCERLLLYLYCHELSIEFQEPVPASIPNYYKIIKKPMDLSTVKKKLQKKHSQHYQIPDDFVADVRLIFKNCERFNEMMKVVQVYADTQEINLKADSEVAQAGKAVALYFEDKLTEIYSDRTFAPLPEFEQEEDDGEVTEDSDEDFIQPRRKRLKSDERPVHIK

[4] = molecular target: FALZ (Homo sapiens, UniProt Q12830); assay: BromoScan selectivity panel (Kd); format: binding
[5] = molecular target: T4, EP300 (Homo sapiens, UniProt Q09472); assay: BromoScan selectivity panel (Kd); format: binding
T4 sequence (Q09472 1040-1161 limits assumed): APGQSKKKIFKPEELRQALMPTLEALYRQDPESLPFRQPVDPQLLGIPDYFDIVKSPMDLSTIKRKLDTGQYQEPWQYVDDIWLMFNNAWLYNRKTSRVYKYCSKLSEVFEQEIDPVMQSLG

[6] = molecular target: T5, ATAD2B (Homo sapiens, UniProt Q9ULI0); assay: BromoScan selectivity panel (Kd); format: binding
T5 sequence (Q9ULI0 953-1085 limits assumed): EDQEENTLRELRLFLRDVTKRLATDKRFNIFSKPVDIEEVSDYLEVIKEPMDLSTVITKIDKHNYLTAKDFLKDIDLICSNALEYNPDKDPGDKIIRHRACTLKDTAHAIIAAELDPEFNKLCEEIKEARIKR

[7] = molecular target: T6, BRPF3 (Homo sapiens, UniProt Q9ULD4); assay: BromoScan selectivity panel (Kd); format: binding
T6 sequence (Q9ULD4 589-693 limits assumed): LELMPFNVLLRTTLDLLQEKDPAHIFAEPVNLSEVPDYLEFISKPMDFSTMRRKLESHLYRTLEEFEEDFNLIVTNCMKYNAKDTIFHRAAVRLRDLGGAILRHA

[8] = molecular target: T7, CBP (Homo sapiens, UniProt Q92793); assay: BromoScan selectivity panel (Kd)
Target sequence in this assay (Q92793 1081-1197 limits assumed): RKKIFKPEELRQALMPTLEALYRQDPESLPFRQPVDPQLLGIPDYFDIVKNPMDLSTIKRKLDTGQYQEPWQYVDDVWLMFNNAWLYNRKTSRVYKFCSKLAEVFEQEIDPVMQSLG

[9] = molecular target: T8, ATAD2A (Homo sapiens, UniProt Q6PL18); assay: BromoScan selectivity panel (Kd); format: binding
T8 sequence (Q6PL18 981-1108 limits assumed): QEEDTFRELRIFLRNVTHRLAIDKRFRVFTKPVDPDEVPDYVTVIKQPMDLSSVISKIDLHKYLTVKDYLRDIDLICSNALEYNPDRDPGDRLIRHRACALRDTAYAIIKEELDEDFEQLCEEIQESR

[10] = molecular target: T9, WDR9(2) (Homo sapiens, UniProt Q9NSI6); assay: BromoScan selectivity panel (Kd); format: binding
T9 construct: WDR9(2)
T9 sequence (Q9NSI6 1313-1418 limits assumed): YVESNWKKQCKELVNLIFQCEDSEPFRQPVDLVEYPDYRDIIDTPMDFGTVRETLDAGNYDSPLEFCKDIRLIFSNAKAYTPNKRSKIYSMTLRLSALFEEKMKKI

[11] = molecular target: T10, TRIM24(PHD Bromo.) (Homo sapiens, UniProt O15164); assay: BromoScan selectivity panel (Kd); format: binding
T10 construct: TRIM24(PHD Bromo.)
T10 sequence (O15164 824-1006 limits assumed): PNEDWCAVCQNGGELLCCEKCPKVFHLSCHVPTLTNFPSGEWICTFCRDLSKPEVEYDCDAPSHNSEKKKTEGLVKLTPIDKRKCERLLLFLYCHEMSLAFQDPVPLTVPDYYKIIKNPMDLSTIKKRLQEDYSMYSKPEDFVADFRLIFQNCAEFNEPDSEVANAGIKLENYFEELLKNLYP

[12] = molecular target: T11, BAZ2B (Homo sapiens, UniProt Q9UIF8); assay: BromoScan selectivity panel (Kd); format: binding
T11 sequence (Q9UIF8 2054-2168 limits assumed): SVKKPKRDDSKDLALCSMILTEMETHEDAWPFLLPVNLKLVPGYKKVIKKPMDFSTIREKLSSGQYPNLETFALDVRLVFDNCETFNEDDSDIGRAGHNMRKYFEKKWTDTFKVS

[13] = molecular target: T12, BAZ2A (Homo sapiens, UniProt Q9UIF9); assay: BromoScan selectivity panel (Kd); format: binding
T12 sequence (Q9UIF9 1796-1899 limits assumed): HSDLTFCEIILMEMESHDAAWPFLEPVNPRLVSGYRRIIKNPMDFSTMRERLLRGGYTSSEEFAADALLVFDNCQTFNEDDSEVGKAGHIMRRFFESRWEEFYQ

[14] = tested on: BRD4-dependent Nut-Midline Carcinoma line 797; assay: Cell viability (ATPlite) in BRD4 dependant cell line 797; conditions: Homo sapiens, read-out: 797--EC50 (μM)
[15] = molecular target: BRD4 (Homo sapiens, UniProt O60885); assay: In vitro AlphaScreen protein binding assay (competition with biotinylated JQ1)
Method: (§1) Assays were performed with minor modifications from the manufacturer's protocol (PerkinElmer, USA). All reagents were diluted in 50 mM HEPES, 150 mM NaCl, 0.1% w/v BSA, and 0.01% w/v Tween® 20 at pH 7.5 and allowed to equilibrate to room temperature prior to addition to plates. After addition of Alpha beads to master solutions, all subsequent steps were performed in low light conditions. […] After a 1000-rpm spin-down for 1 minute, 100 nL of the solutions of compounds of the invention in DMSO from stock plates were added by pin transfer using a Janus Workstation (PerkinElmer, USA). The streptavidin-coated donor beads (25 μg/ml final) were added as with previous solution in a 2×, 10 μL volume. Following this addition, the plates were sealed with foil to block light exposure and to prevent evaporation. The plates were spun down again at 1000 rpm for 1 minute. Next, the plates were incubated in the room with the plate reader (for temperature equilibration) for 1 hour prior to reading the assay. Signal is stable for up to 3 hours after donor bead addition.

[16] = molecular target: T7, CBP; assay: In vitro AlphaScreen protein binding assay, CBP
Target sequence in this assay (Q92793 1085-1192 limits assumed): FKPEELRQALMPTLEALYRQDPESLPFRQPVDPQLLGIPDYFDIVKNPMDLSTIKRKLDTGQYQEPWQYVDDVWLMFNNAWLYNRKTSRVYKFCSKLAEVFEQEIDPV
Method: as §1

[17] = tested on: lung carcinoma cell line H2171; assay: Cellular IC50 in lung carcinoma cell line H2171; format: cell-based
Method: Cells (e.g., BRD4 dependant cells) were counted and adjusted to 60,000 cells/mL. Using a Biotek EL406, 50 μL of the cells in media were distributed into 384 well white plates from Thermo. Immediately after plating, compounds of the invention in DMSO were distributed to plates. For large plate sets, cells were returned to a 37° C. incubator while not in use. The compounds were added to plates using a 100 nL 384 well pin transfer manifold on a Janus workstation. Stocks were arrayed in 10 point quadruplicate dose response in DMSO stock in 384-well Greiner compound plates. After addition of the compounds, plates were incubated for three days in a 37° C. incubator. Cell viability was read out using ATPlite from Perkin Elmer. Plates were removed from the incubator and brought to room temperature prior to use. Lyophilized powder was resuspended in lysis buffer and diluted 1:2 with DI water. 25 μL of this solution was added to each well using the Biotek liquid handler. Plates were sealed with adherent aluminum seals prior to vortexing and spinning down at 1000 g for 1 minute. Plates were incubated for 15 minutes at room temperature before signal was read on an Envision Plate Reader.

[18] = molecular target: T13, BRD1 (Homo sapiens, UniProt O95696); assay: BromoScan selectivity panel (Kd); format: binding
T13 sequence (O95696 556-688 limits assumed): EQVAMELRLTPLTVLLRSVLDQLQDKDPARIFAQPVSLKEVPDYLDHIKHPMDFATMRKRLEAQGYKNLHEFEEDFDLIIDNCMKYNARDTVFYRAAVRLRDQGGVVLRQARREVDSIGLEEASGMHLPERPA

[19] = molecular target: T14, TAF1L(2) (Homo sapiens, UniProt Q8IZX4); assay: BromoScan selectivity panel (Kd); format: binding
T14 construct: TAF1L(2)
T14 sequence (Q8IZX4 1517-1626 limits assumed): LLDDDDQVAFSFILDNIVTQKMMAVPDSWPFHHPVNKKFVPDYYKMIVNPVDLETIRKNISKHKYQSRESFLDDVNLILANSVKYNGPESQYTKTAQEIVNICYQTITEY

[20] = molecular target: T15, TAF1(2) (Homo sapiens, UniProt P21675); assay: BromoScan selectivity panel (Kd); format: binding
T15 construct: TAF1(2)
T15 sequence (P21675 1519-1628 limits assumed): T14 sequence (Q8IZX4 1517-1626 limits assumed) with M46V, V51M, I102V, I107L

[21] = molecular target: T16, BRDT(1) (Homo sapiens, UniProt Q58F21); assay: BromoScan selectivity panel (Kd); format: binding
T16 construct: the bromodomain-containing protein is BRDT(1)

[22] = molecular target: BRDT(2) (Homo sapiens, UniProt Q58F21); assay: BromoScan selectivity panel (Kd); format: binding

Row | SMILES | Kd [1] [µM] | Kd [2] [µM] | Kd [3] [µM] | Kd [4] [µM] | Kd [5] [µM] | Kd [6] [µM] | Kd [7] [µM] | Kd [8] [µM] | Kd [9] [µM] | Kd [10] [µM] | Kd [11] [µM] | Kd [12] [µM] | Kd [13] [µM] | also measured
1 | Cc1sc2c(c1C)C(c1ccc(Cl)cc1)=NC(CC(=O)OC(C)(C)C)c1nnc(C)n1-2 (stereo not shown) [JQ1, reference compound] | ≥ 40 | ≥ 40 | ≥ 40 | ≥ 40 | 51 | ≥ 40 | ≥ 40 | 24 | ≥ 40 | ≥ 40 | ≥ 40 | ≥ 40 | ≥ 40 | 
2 | CCOC(=O)[C@]1(C)N[C@H](c2ccc(-c3c(C)noc3C)cc2)[C@@H]2C(=O)N(CC)C(=O)[C@@H]21 [UMB17, (1R,3S,3aR,6aS)-ethyl 3-(4-(3,5-dimethylisoxazol-4-yl)phenyl)-5-ethyl-1-methyl-4,6-dioxooctahydropyrrolo[3,4-c]pyrrole-1-carboxylate] |  |  |  |  |  |  |  |  |  |  |  |  |  | EC50 [14]: 9.42 µM; IC50 ([15]; BRD4--IC50 (μM), Table 5, biochemical): > 100 µM; IC50 ([15]; BRD4 IC50 (μM), Table 2, AlphaScreen): 122 µM; IC50 [16]: 30 µM; IC50 ([17]; Homo sapiens, NCI-H2171, Table 2, cellular, lung carcinoma cell line H2171): 55 µM; cellular activity in H2171 ([17]; text b616): show cellular activity in H2171
3 | CCNC(=O)C[C@@H]1N=C(c2ccc(Cl)cc2)c2cc(OC)ccc2-n2c(C)nnc21 [I-BET, reference compound] | ≥ 40 | ≥ 40 | ≥ 40 | ≥ 40 | 71 | ≥ 40 | ≥ 40 | 76 | ≥ 40 | ≥ 40 | ≥ 40 | ≥ 40 | ≥ 40 | Kd [18]: ≥ 40 µM; Kd [19]: ≥ 40 µM; Kd [20]: ≥ 40 µM; Kd [21]: 0.16 µM; Kd [22]: 0.045 µM
